Results published in patent US20160130278A1 (TAISHO PHARMACEUTICAL CO., LTD, priority 2013, published 2016).

Molecular target: T1, human type 1 glycine transporter (GlyT1) (Homo sapiens, UniProt P48067)
T1 construct: T98G cells (glioma cells) expressing human type 1 glycine transporter (GlyT1) were used
T1 sequence (P48067 1-706): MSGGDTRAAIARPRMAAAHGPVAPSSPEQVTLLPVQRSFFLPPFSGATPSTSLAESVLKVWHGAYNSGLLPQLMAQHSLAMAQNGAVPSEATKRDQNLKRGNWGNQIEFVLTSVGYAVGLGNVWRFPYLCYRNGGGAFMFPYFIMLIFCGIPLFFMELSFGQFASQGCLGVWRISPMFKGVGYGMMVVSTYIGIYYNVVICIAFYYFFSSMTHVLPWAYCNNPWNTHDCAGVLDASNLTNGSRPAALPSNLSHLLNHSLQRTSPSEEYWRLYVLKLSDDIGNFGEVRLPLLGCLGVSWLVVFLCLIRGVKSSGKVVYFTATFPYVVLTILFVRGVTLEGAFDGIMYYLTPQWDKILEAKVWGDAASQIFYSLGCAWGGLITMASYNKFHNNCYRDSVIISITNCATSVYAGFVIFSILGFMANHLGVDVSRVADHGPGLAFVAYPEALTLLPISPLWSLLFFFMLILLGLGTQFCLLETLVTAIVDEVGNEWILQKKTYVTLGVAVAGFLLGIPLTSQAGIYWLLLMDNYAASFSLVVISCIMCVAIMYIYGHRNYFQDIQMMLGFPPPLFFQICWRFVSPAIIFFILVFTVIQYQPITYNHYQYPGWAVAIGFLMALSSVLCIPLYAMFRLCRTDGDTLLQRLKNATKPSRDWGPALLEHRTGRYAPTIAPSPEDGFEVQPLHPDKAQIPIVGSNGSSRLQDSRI
Test: Glycine uptake inhibition experiment ([3H]glycine uptake)
Format: cell-based
Procedure, shortened: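 T98G glioma cells expressing human GlyT1 were pretreated 10 min with compound in HEPES buffer pH 7.4 (0.2% BSA), then incubated with compound plus 250 nM final [3H]glycine for 15 min at room temperature. Intracellular radioactivity was counted after NaOH lysis; 10 μM ALX5407 defined non-specific uptake. IC50 came from 10^−9–10^−5 M curves.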

SMILES	IC50 (GlyT1) [nM]	IC50 (human GlyT1) [nM]
CCn1cc(-c2cccc(C(NC(=O)c3nccnc3Cl)C3(O)CCC(F)(F)CC3)c2)cn1 (stereo not shown) [Compound 141, 3-chloro-N-{(4,4-difluoro-1-hydroxycyclohexyl)[3-(1-ethyl-1H-pyrazol-4-yl)phenyl]methyl}pyradine-2-carboxamide]	3100	–
CCn1cc(-c2cccc(C(NC(=O)c3ccc(F)cc3C(F)(F)F)C3(O)CCC(F)(F)CC3)c2)cn1 (single isomer, unassigned) [Compound 215, N-{(4,4-difluoro-1-hydroxycyclohexyl)[3-(1-ethyl-1H-pyrazol-4-yl)phenyl]methyl}-4-fluoro-2-(trifluoromethyl)benzamide]	210	–
CCn1cc(-c2cccc(C(NC(=O)c3ncccc3Cl)C3(O)CCCC3)c2)cn1 (stereo not shown) [Compound 21, 3-chloro-N-{[3-(1-ethyl-1H-pyrazol-4-yl)phenyl](1-hydroxycyclopentyl)methyl}pyridine-2-carboxamide]	4600	–
CCn1cc(-c2cccc(C(NC(=O)c3ccccc3Cl)C3(O)CCC(F)(F)CC3)c2)cn1 (stereo not shown) [Compound 205, 2-chloro-N-[(4,4-difluoro-1-hydroxycyclohexyl)[3-(1-ethyl-1H-pyrazol-4-yl)phenyl]methyl}benzamide]	1900	–
O=C(NC(c1cccc(F)c1Cl)[C@]1(O)CC[C@@H](F)CC1)c1cccc(Cl)c1C(F)(F)F (single isomer, unassigned) [Compound 312, 3-chloro-N-[(2-chloro-3-fluorophenyl)(cis-4-fluoro-1-hydroxycyclohexyl)methyl]-2-(trifluoromethyl)benzamide]	890	–
O=C(NC(c1ccccc1Cl)C1(O)CCC(F)(F)CC1)c1nccc(C(F)(F)F)c1Cl (single isomer, unassigned) [Compound 147, 3-chloro-N-[(2-chlorophenyl)(4,4-difluoro-1-hydroxycyclohexyl)methyl]-4-(trifluoromethyl)pyridine-2-carboxamide]	110	–
O=C(NC(c1cccc(F)n1)C1(O)CCC(F)(F)CC1)c1ccnc(C(F)(F)F)c1Cl (single isomer, unassigned) [Compound 359, 3-chloro-N-[(4,4-difluoro-1-hydroxycyclohexyl)(6-fluoropyridin-2-yl)methyl]-2-(trifluoromethyl)pyridine-4-carboxamide]	250	–
O=C(NC(c1cccc(F)c1Cl)[C@]1(O)CC[C@@H](F)CC1)c1cccc(C(F)(F)F)c1F (single isomer, unassigned) [Compound 245, N-[(2-chloro-3-flurophenyl)(cis-4-fluoro-1-hydroxycyclohexyl)methyl]-2-fluoro-3-(trifluoromethyl)benzamide]	990	–
CS(=O)(=O)c1nc(C(F)(F)F)ccc1C(=O)NC(c1cccc(F)c1Cl)[C@]1(O)CC[C@@H](F)CC1 (single isomer, unassigned) [Compound 388, N-[(2-chloro-3-fluorophenyl)(cis-4-fluoro-1-hydroxycyclohexyl)methyl]-2-(methylsulfonyl)-6-(trifluoromethyl)pyridine-3-carboxamide]	260	–
O=C(NC(c1cccc(F)c1Cl)[C@]1(O)CC[C@@H](F)CC1)c1cc(C(F)(F)F)cnc1Cl (single isomer, unassigned) [Compound 317, 2-chloro-N-[(2-chloro-3-fluorophenyl)(cis-4-fluoro-1-hydroxycyclohexyl)methyl]-5-(trifluoromethyl)pyridine-3-carboxamide]	150	–

Now from value to compound:

IC50 (GlyT1) [nM]	IC50 (human GlyT1) [nM]	SMILES
1700	–	O=C(NC(c1cc(Cl)ccc1Cl)C1(O)CCCC1)c1nccc(C(F)(F)F)c1Cl (single isomer, unassigned) [Compound 113, 3-chloro-N-[(2,5-dichlorophenyl)(1-hydroxycyclopentyl)methyl]-4-(trifluoromethyl)pyridine-2-carboxamide]
8300	–	O=C(NC(c1cccc(F)c1Cl)[C@]1(O)CC[C@@H](F)CC1)c1cc(Cl)cc(Cl)c1 (single isomer, unassigned) [Compound 253, 3,5-dichloro-N-[(2-chloro-3-fluorophenyl)(cis-4-fluoro-1-hydroxycyclohexyl)methyl]benzamide]
2000	–	O=C(NC(c1cccc(-c2cccnc2)c1)C1(O)CCCC1)c1nccc(C(F)(F)F)c1Cl (single isomer, unassigned) [Compound 24, 3-chloro-N-{(1-hydroxycyclopentyl)[3-(pyridin-3-yl)phenyl]methyl}-4-(trifluoromethyl)pyridine-2-carboxamide]
130	–	O=C(N[C@@H](c1cccc(-c2ncccn2)c1)C1(O)CCCC1)c1nccc(C(F)(F)F)c1Cl [Compound 36, 3-chloro-N-{(S)-(1-hydroxycyclopentyl)[3-(pyrimidin-2-yl)phenyl]methyl}-4-(trifluoromethyl)pyridine-2-carboxamide]
–	320	CS(=O)(=O)c1nc(C(F)(F)F)ccc1C(=O)NC(c1ccccc1Cl)C1(O)CCC(F)(F)CC1 (single isomer, unassigned) [Compound 406, N-[(2-chlorophenyl)(4,4-difluoro-1-hydroxycyclohexyl)methyl]-2-(methylsulfonyl)-6-(trifluoromethyl)pyridine-3-carboxamide]
280	–	Cc1ccccc1C(NC(=O)c1nccc(C(F)(F)F)c1Cl)C1(O)CCCC1 (stereo not shown) [Compound 47, 3-chloro-N-[(1-hydroxycyclopentyl)(2-methylphenyl)methyl]-4-(trifluoromethyl)pyridine-2-carboxamide]
110	–	O=C(NC(c1cc(F)cc(Cl)c1)C1(O)CCCC1)c1nccc(C(F)(F)F)c1Cl (single isomer, unassigned) [Compound 94, 3-chloro-N-[(3-chloro-5-fluorophenyl)(1-hydroxycyclopentyl)methyl]-4-(trifluoromethyl)pyridine-2-carboxamide]
75	–	O=C(N[C@@H](c1cccc(Br)c1)C1(O)CCCC1)c1cccc(C(F)(F)F)c1Cl [Compound 64, N-[(S)-(3-bromophenyl)(1-hydroxycyclopentyl)methyl]-2-chloro-3-(trifluoromethyl)benzamide]
56	–	O=C(NC(c1cc(Cl)ccn1)[C@]1(O)CC[C@@H](F)CC1)c1ccnc(C(F)(F)F)c1Cl (single isomer, unassigned) [Compound 330, 3-chloro-N-[(4-chloropyridin-2-yl)(cis-4-fluoro-1-hydroxycyclohexyl)methyl]-2-(trifluoromethyl)pyridine-4-carboxamide]
57	–	O=C(NC(c1cccc(F)c1)C1(O)CCCCC1)c1nccc(C(F)(F)F)c1Cl (stereo not shown) [Compound 63, 3-chloro-N-[(3-fluorophenyl)(1-hydroxycyclohexyl)methyl]-4-(trifluoromethyl)pyridine-2-carboxamide]
900	–	NC(=O)c1cccc(C(NC(=O)c2nccc(C(F)(F)F)c2Cl)C2(O)CCCC2)c1 (stereo not shown) [Compound 106, N-[(3-carbamoylphenyl)(1-hydroxycyclopentyl)methyl]-3-chloro-4-(trifluoromethyl)pyridine-2-carboxamide]
320	–	O=C(NC(c1cccc(Br)c1)C1(O)CCC(F)(F)CC1)c1nccc(C(F)(F)F)c1Cl (stereo not shown) [Compound 85, N-[(3-bromophenyl)(4,4-difluoro-1-hydroxycyclohexyl)methyl]-3-chloro-4-(trifluoromethyl)pyridine-2-carboxamide]
